Measured values: patent US20220184037A1, “PHARMACEUTICAL AGENTS TARGETING CANCER STEM CELLS” (THE JOHNS HOPKINS UNIVERSITY, priority 2020, published 2022)

Key:
Type in all cases: cell-based, human
SOX2 = experiment: Western blotting / flow cytometry of SOX2 expression in bladder cancer cells
Experimental: (§1) Whole cell lysates were extracted using RIPA buffer (Thermo Scientific) supplemented with 10 μL/mL Halt™ Protease Inhibitor Cocktail Kit (Life Technologies) and 30 μL/mL Halt™ Phosphatase Inhibitor Cocktail Kit (Life Technologies). The protein concentrations were determined using a Pierce™ BCA Protein Assay Kit (Life Technologies), and the protein were separated on. NuPAGE 4-12% Bis-Tris Gel (Life Technologies) according to the manufacturer's protocol. COX2 (D5H5), NANOG (D73G4), OCT4 (D7O5Z), CD133 (A3G6K), Snail (C15D3), ZEBI (D80D3), Vimentin (D21H3), CDH2 (D4R1H), CDH1 (24E10), p-EGFR (D7A5), EGFR (D38B1), p-AKT (D9E), AKT (cat #, 9272), p-ERK (D13.14.4E), ERK (137F5), p-YAP1 (D9W2I), p-Src (cat #, 2101), Src (36D10), DNMT1 (D63A6), DNMT3A (D23G1), and DNMT3B (D7070) antibodies were obtained from Cell Signaling Technology (Danvers, Mass., USA), except for SOX2 (EPR3131; Abeam, Cambridge, USA), YAP1 (ab52771; Abeam), CD24 (cat #, AF5247-SP; R&D Systems, Minneapolis USA) and β-actin (A2228; Sigma-Aldrich). Secondary horseradish peroxidase (HRP)-conjugated antibodies were obtained from Cell Signaling Technology, and chemiluminescent detection of HRP-labeled antibodies was performed using Amersham ECL Prime Western Blotting Detection Reagent (GE Healthcare, Piscataway, USA). As loading control, β-actin was used.
For extracellular staining, cells (1×10^6/100 μL stain buffer) were incubated with PE-Vio770-conjugated anti-human CD133 (293C3; Miltenyi Biotec, Auburn, USA) or PE-conjugated anti-human CD24 antibody (cat #, 560991; BD Biosciences) for 30 min at 4° C. in dark. PE-Vio770-conjugated anti-IgG1κ Isotype (cat #, 130-098-563; Miltenyi Biotec) and PE-conjugated IgG2a, κ Isotype (cat #, 555574; BD Biosciences) were used as control for CD133 and CD24 staining, respectively. Staining for intracellular SOX2 was carried out using the BD Cytofix/Cytopem Fixation/Permeabilization Kit (BD Biosciences) according to manufacturer's protocol. The cells were incubated with Alexa Fluor 647-conjugated anti-SOX2 antibody (cat #, 560302; BD Biosciences) for 40 min at 4° C. in dark. Alexa Fluor 647-conjugated anti-IgG2a, κ Isotype (cat #, 558053; BD Biosciences) was used as control. Data were acquired on a BD FACSCalibur flow cytometer (BD Biosciences) using BD CellQuest Pro software (BD Biosciences) and analyzed with FlowJo software v10.1 (Tree Star, Ashland, USA).

YAP1 = experiment: Western blotting of YAP1 expression in bladder cancer cells
Experimental: as §1

[1] = system: AKT and extracellular signal-related kinase (ERK); experiment: Western blotting of AKT and ERK activation; settings: basal-type cells, erlotinib
Experimental: as §1

[2] = system: bladder cancer cells (urothelial CSCs); experiment: Sphere formation assay
Experimental: Sphere formation was induced by culturing cells (2×10^4/well) in […] F12 50/50 Mix (Mediatech) supplemented with B-27 (Life Technologies), 20 ng/mL FGF-basic (Peprotech), 20 ng/mL EGF (Peprotech). Cell culture was performed in ultra-low attachment 6 well plates (Corning, Lowell, USA) for 10 days. The medium was replaced every other day. Sphere formation was evaluated using the inverted phase-contrast microscope, and single sphere with a diameter larger than 100 gm was counted using NIS-Elements Microscope Imaging Software. To redifferentiate spheres, spheres were plated in standard growth medium with 10% FBS in dishes supporting cell attachment, and incubated for 7 days. For self-renewal assay, primary spheres were collected by gentle centrifugation (5 min at 400×g), dissociated with Stempro Accutase Cell Dissociation Reagent (Life Technologies), and mechanically disrupted with a pipette. The cell suspension was sieved through 40 μm cell strainer cap filter to achieve a single-cell suspension, and then equal numbers of alive cells were plated in ultralow attachment plates to generate the second spheres. Again, spheres were counted on day 14 and digested to generate the third Spheres. All the experiments were performed in triplicate and repeated at least three times.

[3] = system: panel of miRNAs in BFTC 905 cells; experiment: Expression of a panel of miRNAs; settings: COX2 inhibitor
Experimental: Total RNA from cell lines was isolated using the RNeasy Plus Mini kit (Qiagen, Valencia, USA) according to the manufacturer's protocol. Total RNA extraction from bladder tissue was performed with the QIAzol Lysis Reagent (Qiagen) followed by phenol extraction and ethanol precipitation. Total RNA was eluted in DEPC treated water and stored at −80 ° C. Total RNA extraction from urine was performed using the MirVana miRNA Isolation Kit (Ambion, Austin, USA). These total RNA were converted to cDNA using the SuperScript III First-Strand Synthesis System (Life technologies, Carlsbad, USA), which was then used as a template for Q-RT-PCR. Q-RT-PCR was performed using the Fast SYBR Green Master Mix (Thermo Fisher Scientific, Waltham, USA) on a 7900HT Fast Real-Time PCR System (Life technologies) in triplicate. Micro RNA (miRNA) extraction was performed using the MirVana miRNA Isolation Kit, and was reverse transcribed using TaqMan reverse transcription kit (Applied Biosystems, Foster City, USA) and miRNA-specific RT primers provided with TaqMan microRNA assays (Applied Biosystems). Q-RT-PCR for miRNAs was performed using the TaqMan Universal PCR Master Mix according to the manufacturer's protocol. SDS software (Applied Biosystems) was used to determine cycle threshold (Ct) values. Expression level was quantified relative to β-actin for mRNA and RNU6B for miRNA using the 2-ΔΔCt method (12).

[4] = basal-type cells, 1 μM erlotinib

| Structure (SMILES) | level of SOX2 expression over time (SOX2; [4]) | YAP1 expression (YAP1; [4]) | levels of YAP1 expression (YAP1; non-basal-type cells, erlotinib) | activation of AKT and ERK [1] | number of spheres ([2]; basal-type cells, 1 μM erlotinib for 72 hours) | SOX2 expression (SOX2; COX2 inhibitor or EP4 antagonist alone (FIG. 2A-B, S7)) | erlotinib-increased SOX2 expression (SOX2; basal-type cells, COX2 inhibitor added to erlotinib) | induction of YAP1 expression (YAP1; COX2 inhibitor added to erlotinib) | sphere-forming ability / sphere formation ([2]; COX2 inhibitor or EP4 antagonist alone) | erlotinib-increased sphere formation ([2]; basal-type cells, COX2 inhibitor added to erlotinib (10 μM celecoxib, 72 hours)) | expression of several miRNAs [3] |
| --- | --- | --- | --- | --- | --- | --- | --- | --- | --- | --- | --- |
| C#Cc1cccc(Nc2ncnc3cc(OCCOC)c(OCCOC)cc23)c1 [erlotinib, Erlotinib] | decreased at 1 hour after treatment with erlotinib and then gradually increased | continuously decreased YAP1 expression | did not affect | suppressed activation | enriched number of spheres | – | – | – | – | – | – |
| Cc1ccc(-c2cc(C(F)(F)F)nn2-c2ccc(S(N)(=O)=O)cc2)cc1 [celecoxib, Celecoxib] | – | – | – | – | – | SOX2 downregulation | impaired | no longer able to induce YAP1 expression | repressed | impaired | induced expression |
